Assay results taken from patent publication US20060168675A1, “Novel polypetide having function of 7-keto-8-aminopelargonic acid synthase of plant and method for inducing growth inhibition and lethality by suppressing expression of the polypeptide” (GENOMINE, INC, priority 2002, published 2006).

Tests used:
[1] = test system: transgenic Arabidopsis thaliana comprising antisense construct of AtKAPAS gene; conditions: pots filled with sands containing 1 mM biotin; Basta treated 5 times; transformed seeds
Description: The pots were treated with Basta 5 times, and then investigated for the growth of Arabidopsis thaliana in every pot.

[2] = biological target: T1, protein expressed by AtKAPAS gene (KAPA synthase) (Arabidopsis thaliana, UniProt Q8GW43, DEL236-242/L243I); assay type: biochemical; conditions: substrate pimeroyl CoA, Lineweaver-Burk plot, 30° C., pH 7.5, 340 nm
T1 construct: contains 1410 bp size open reading frame encoding 469 amino acids; made in house; host or cells: E. coli BL21-Gold(DE) transformed with pCKAPA (AtKAPAS cDNA in pCAL-n)
T1 sequence (Q8GW43 other isoform, or with tags, fused parts or gaps DEL236-242/L243I): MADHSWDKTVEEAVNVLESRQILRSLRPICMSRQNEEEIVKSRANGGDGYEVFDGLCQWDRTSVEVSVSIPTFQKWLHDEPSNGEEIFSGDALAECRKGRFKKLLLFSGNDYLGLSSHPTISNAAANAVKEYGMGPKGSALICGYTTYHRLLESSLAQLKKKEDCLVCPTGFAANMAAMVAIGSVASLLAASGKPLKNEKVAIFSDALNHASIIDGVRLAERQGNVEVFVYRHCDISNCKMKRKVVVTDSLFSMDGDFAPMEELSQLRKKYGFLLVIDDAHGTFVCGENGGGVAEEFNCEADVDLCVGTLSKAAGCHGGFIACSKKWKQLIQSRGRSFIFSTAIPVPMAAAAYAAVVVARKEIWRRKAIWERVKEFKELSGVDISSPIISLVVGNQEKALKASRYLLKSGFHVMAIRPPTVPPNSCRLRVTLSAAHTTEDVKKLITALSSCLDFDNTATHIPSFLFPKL
Description: The enzyme activity of the protein was measured at 340 nm using a spectrophotometer (Backman DU series 60 spectrophotometer) adjusted at 30° C. according to a method of Alexeev et al.(Alexeev et al. J. Mol. Biol., 284:401-419, 1998). […] In every reaction solution, the concentration of the protein was 10 μM. L-alanine and pimeroyl CoA were also added into each reaction solution ([…]). Results were analyzed using the Soft-Pac Module kinetics software. Before the analysis, enzyme samples were dialyzed with 20 mM potassium phosphate buffer (pH 7.5) containing 100 μM PLP (pyridoxal 5′-phosphate) at 4° C. for 2 hours. The cuvette containing other substances but the purified protein was used as a control group for the measurement of the enzyme activity.
The changes of reaction speed according to substrate concentration were measured, and then represented by Lineweaver-Burkes plot (see FIG. 4).

[3] = biological target: KAPA syntase of E. coli (Escherichia coli, UniProt P12998); conditions: KAPA synthase of E. coli; read-out: Km value to pimeroyl CoA; cited from earlier work
Chain of KAPA syntase of E. coli (P12998 whole entry): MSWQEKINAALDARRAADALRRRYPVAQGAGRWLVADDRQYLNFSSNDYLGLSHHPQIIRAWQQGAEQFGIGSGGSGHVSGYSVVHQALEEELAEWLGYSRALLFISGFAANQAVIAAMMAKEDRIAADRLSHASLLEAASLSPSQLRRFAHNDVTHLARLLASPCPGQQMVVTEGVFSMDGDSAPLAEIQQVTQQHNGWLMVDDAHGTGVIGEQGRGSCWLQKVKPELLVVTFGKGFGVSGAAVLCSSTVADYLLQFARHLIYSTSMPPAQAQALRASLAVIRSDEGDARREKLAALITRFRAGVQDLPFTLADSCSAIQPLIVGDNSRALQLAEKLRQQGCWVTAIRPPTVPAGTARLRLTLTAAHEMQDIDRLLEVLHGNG

[4] = biological target: KAPA syntase of Bacillus sphaericus (Lysinibacillus sphaericus, UniProt P22806); conditions: read-out: Km value to pimeroyl CoA; KAPA synthase of Bacillus sphaericus; cited from earlier work
Chain of KAPA syntase of Bacillus sphaericus (P22806 whole entry): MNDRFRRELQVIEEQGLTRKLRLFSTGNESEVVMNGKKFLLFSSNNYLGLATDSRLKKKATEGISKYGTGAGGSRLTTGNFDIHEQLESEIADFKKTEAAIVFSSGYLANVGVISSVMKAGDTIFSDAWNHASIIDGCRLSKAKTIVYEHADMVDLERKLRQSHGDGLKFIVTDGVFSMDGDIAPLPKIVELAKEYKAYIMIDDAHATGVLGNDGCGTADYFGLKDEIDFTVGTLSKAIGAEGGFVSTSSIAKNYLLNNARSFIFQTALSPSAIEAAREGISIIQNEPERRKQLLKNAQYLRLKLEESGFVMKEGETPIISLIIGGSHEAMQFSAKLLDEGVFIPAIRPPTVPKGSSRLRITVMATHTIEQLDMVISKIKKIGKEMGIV

| Compound | Individual plants grown up [1] | Km ([2]; read-out: Km value) | Vmax value [2] | Km [3] | Km [4] |
| --- | --- | --- | --- | --- | --- |
| O=C(O)CCCC[C@@H]1SC[C@@H]2NC(=O)N[C@@H]21 [biotin] | 16 |  |  |  |  |
| CC(C)(COP(=O)(O)OP(=O)(O)OC[C@H]1O[C@@H](n2cnc3c(N)ncnc32)[C@H](O)[C@@H]1OP(=O)(O)O)[C@@H](O)C(=O)NCCC(=O)NCCSC(=O)CCCCCC(=O)O [pimeroyl CoA, pimeloyl CoA] |  | 0.54 µM | 7.93 | 500 µM | 2500 µM |
